Data taken from patent US7973075B2, “Kainate receptor-selective epimeric analogs of dysiherbaine” (priority 2007, dated 2011).
“Also recorded” adds a separate entry of the source.

Legend:
GluR4(i) AMPA receptors = biological target: T1, GluR4(i) AMPA receptors (Rattus norvegicus, UniProt P19493); test: Whole-cell patch clamp recordings, transfected HEK-293-T/17 cells, Example 2; format: cell-based; conditions: 300 μM analog
T1 construct: expressed in transfected cells; host or cells: HEK-293-T/17
Protocol: (§1) Cell Culture and Electrophysiology. HEK-293-T/17 cells were maintained in Dulbecco's modified Eagle's medium (DMEM) supplemented with 100 μg/mL penicillin, 100 μg/mL streptomycin, and 10% heat inactivated fetal bovine serum. One day before transfection, HEK-T/17 cells were plated at low density on glass coverslips coated with 100 μg/ml poly-D-lysine and 100 μg/ml collagen. Cells were transfected with receptor cDNAs ([…]) in combination with enhanced green fluorescent protein (eGFP) cDNA for visualization of transfected cells. Transfections were carried out with Fugene6 (Roche Applied Science) according to the manufacturer's protocol and used 2-3 days following transfection. Internal solution consisted of 110 mM CsF, 30 mM CsCl, 4 mM NaCl, 0.5 mM CaCl2, 10 mM HEPES, and 5 mM EGTA, and was adjusted to pH=7.3 with CsOH. The external solution contained 150 mM NaCl, 2.8 mM KCI, 2 mM CaCl2, 1 mM MgCl2, and 10 mM HEPES, adjusted to pH=7.3 with NaOH. Patch electrodes from thick-walled borosilicate glass (Warner Instruments, Hamden, Conn.) were pulled to a final resistance of 1.5 to 2.5 MO after fire polishing. […] To determine the pre-desensitization IC50 of selected analogs, several control glutamate (10 mM) applications were followed by a 2.5 minute application of various concentrations of 8-deoxy-neoDH, 9-deoxy-neoDH, or MSVIII-19, after which the analogs were co-applied with glutamate. A similar protocol was followed to measure the recovery of glutamate-evoked currents, with the exception that the analogs were not co-applied with glutamate. Whole cell patch clamp recordings were carried out using an Axopatch 200B amplifier (Axon Instruments). Data were analyzed with Origin 7.5 (OriginLab Corp.), and Prism4 (GraphPad Software Inc.); inhibition-response curves were plotted and fit with a one-site competition curve constrained to fixed minima (0) and maxima (100).
(§2) The pharmacological activities of the C2/C4 epimers were determined in patch-clamp assays with GluR5-2a or GluR6a KARs as well as GluR4(i) AMPA receptors.
(§3) 30 μM 2,4-epi-neoDH reduced glutamate-induced currents from GluR5-2a receptors by −70% while the same concentration reduced glutamate-induced currents from GluR6a receptors by −30% (FIG. 13A). […] We noted that the data derived from recording of the GluR5-2a receptor was poorly fit by the single component logistic curve, particularly at the lower concentrations. This inconsistency may arise from inter-subunit or inter-dimer cooperativity in the inhibitory activity or may be an apparent artifact resulting from run-down of the GluR5-2a receptor currents.

GluR6a = biological target: T2, GluR6a (Rattus norvegicus, UniProt P42260); test: as above; format: cell-based; conditions: for agonist activity: analog-evoked currents from GluR6a receptors (words): 1 s test application of the analog at a high concentration (50-100 μM)
T2 construct: expressed in transfected cells; host or cells: HEK-293-T/17
Protocol: as §1, §2, §3

GluR5 = biological target: T3, GluR5 (Rattus norvegicus, UniProt P22756); conditions: Tables 1-2; comparison values of neoDH and MSVIII-19 (Sanders et al., 2005); read-out: GluR5 binding affinity (displacement of [3H]kainate); cited from earlier work
T3 construct: expressed in transfected cells; HEK 293 (patch clamp)

GluR1(i) = biological target: T4, GluR1(i) (Rattus norvegicus, UniProt P19490); conditions: Sanders et al., 2005; cited from earlier work
T4 construct: expressed in transfected cells; host or cells: HEK-293-T/17

KA2 = biological target: T5, KA2 (Rattus norvegicus, UniProt Q63273); conditions: Tables 1-2; comparison values of neoDH and MSVIII-19 (Sanders et al., 2005); cited from earlier work
T5 construct: expressed in transfected cells; host or cells: HEK-293-T/17
T5 sequence (Q63273 15-979): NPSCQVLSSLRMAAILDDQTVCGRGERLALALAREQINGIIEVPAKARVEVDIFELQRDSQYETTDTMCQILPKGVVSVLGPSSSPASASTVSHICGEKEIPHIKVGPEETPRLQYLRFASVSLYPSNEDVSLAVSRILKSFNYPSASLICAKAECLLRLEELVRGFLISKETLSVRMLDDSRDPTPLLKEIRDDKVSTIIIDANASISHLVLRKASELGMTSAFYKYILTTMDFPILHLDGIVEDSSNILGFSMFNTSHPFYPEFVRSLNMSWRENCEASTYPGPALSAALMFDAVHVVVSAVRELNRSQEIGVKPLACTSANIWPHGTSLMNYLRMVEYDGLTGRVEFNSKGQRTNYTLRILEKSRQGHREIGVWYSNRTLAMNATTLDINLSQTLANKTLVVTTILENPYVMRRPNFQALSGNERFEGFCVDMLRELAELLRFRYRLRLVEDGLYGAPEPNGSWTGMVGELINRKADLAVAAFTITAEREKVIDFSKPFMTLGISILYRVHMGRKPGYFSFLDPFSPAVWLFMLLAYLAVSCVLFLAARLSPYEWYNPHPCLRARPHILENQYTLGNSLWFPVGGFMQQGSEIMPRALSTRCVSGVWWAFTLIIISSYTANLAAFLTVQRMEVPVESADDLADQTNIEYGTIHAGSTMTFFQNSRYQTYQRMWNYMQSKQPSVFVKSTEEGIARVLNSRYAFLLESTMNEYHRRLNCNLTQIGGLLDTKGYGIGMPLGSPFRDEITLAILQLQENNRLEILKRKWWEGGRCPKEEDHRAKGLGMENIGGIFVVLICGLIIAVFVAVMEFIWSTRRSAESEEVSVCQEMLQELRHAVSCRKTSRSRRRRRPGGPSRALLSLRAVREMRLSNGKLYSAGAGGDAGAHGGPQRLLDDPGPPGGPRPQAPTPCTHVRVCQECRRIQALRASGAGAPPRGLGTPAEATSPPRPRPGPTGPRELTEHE

GluR2 = biological target: T6, GluR2 (Rattus norvegicus, UniProt P19491); conditions: Table 1; comparison value of MSVIII-19 (Sanders et al., 2005); read-out: GluR2 binding affinity (displacement of [3H]AMPA); cited from earlier work
T6 construct: expressed in transfected cells; host or cells: COS-7 or HEK-T/17

GluR5-2a = biological target: T7, GluR5-2a (Rattus norvegicus, UniProt P22756, DEL402-416); conditions: Sanders et al., 2005; read-out: IC50 for inhibition of glutamate-evoked currents, GluR5-2a receptors; cited from earlier work
T7 construct: expressed in transfected cells; host or cells: HEK-293-T/17

GluR6 = biological target: T8, GluR6 (Rattus norvegicus, UniProt P42260); conditions: Table 1; comparison value of MSVIII-19 (Sanders et al., 2005); read-out: GluR6 binding affinity (displacement of [3H]kainate); cited from earlier work
T8 construct: expressed in transfected cells; HEK 293 (patch clamp)
T8 sequence (P42260 32-908): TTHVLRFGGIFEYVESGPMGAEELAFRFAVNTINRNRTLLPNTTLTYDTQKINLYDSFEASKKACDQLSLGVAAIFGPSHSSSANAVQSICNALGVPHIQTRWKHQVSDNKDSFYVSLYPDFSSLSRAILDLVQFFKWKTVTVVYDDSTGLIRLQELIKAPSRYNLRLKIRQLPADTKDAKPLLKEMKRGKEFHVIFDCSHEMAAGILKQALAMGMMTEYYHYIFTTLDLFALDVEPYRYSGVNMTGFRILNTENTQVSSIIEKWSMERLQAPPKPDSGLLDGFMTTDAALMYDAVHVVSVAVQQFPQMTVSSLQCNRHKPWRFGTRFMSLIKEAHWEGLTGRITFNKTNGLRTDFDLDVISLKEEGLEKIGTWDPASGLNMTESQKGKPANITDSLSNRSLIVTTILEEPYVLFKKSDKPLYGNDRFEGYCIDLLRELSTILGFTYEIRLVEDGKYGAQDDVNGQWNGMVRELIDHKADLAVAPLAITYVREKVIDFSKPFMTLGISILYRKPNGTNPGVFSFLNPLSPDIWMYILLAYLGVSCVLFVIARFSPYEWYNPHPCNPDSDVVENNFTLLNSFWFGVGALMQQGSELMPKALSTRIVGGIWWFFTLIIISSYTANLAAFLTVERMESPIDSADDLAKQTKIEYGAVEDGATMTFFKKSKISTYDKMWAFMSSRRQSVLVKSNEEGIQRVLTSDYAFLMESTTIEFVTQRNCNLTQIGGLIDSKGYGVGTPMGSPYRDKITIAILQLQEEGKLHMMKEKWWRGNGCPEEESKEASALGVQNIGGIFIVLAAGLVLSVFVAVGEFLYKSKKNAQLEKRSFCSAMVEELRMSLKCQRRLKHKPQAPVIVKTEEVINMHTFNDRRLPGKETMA

T2 sequence (P42260 32-908): as above
T1 sequence (P19493 22-902 isoform P19493-2 limits assumed): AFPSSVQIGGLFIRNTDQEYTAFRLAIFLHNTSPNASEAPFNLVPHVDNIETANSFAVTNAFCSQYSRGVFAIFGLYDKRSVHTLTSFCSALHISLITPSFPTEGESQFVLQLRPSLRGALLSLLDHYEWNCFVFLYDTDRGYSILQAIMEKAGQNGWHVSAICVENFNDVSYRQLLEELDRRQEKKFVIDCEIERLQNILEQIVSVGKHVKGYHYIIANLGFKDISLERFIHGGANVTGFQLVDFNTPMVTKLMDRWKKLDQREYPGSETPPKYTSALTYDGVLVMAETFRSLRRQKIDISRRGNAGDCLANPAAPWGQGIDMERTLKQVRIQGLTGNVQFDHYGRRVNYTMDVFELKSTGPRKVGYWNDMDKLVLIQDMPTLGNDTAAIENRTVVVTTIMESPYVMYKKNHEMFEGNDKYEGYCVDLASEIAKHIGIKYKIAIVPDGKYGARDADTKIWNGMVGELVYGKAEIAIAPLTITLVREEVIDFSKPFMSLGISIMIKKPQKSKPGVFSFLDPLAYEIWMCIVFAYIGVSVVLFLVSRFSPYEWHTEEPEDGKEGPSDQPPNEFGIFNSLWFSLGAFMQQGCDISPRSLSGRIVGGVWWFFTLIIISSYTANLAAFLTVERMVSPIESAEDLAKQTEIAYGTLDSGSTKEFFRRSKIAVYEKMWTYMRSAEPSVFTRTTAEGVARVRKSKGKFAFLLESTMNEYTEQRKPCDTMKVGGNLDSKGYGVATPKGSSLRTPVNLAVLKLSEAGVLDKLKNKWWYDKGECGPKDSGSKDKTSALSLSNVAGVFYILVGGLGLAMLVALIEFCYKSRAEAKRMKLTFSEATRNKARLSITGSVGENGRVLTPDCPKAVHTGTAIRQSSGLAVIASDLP
T6 sequence (P19491 22-883 isoform P19491-2 limits assumed): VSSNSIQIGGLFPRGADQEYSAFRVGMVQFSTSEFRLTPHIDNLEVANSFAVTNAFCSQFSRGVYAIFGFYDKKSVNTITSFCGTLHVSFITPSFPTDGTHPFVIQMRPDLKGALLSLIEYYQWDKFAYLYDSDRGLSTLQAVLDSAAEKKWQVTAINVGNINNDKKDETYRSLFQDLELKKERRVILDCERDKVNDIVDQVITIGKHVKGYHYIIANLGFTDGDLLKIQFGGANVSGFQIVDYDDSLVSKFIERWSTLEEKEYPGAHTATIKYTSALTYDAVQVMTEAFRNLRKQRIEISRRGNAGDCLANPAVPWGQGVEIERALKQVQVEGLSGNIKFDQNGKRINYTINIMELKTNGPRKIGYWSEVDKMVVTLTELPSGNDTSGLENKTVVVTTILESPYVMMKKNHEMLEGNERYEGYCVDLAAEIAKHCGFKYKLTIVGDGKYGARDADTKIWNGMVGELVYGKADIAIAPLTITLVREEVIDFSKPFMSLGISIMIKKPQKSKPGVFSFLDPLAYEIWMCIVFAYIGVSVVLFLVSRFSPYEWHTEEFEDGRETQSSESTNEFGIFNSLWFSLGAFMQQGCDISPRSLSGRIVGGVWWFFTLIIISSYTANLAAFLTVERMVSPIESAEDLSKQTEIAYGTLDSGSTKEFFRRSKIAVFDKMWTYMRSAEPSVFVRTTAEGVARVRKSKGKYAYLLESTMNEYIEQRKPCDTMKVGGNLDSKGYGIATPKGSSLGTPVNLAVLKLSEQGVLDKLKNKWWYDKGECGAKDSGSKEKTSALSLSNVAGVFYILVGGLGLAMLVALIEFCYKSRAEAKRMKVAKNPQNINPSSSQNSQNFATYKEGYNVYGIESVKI
T4 sequence (P19490 19-907 isoform P19490-2 limits assumed): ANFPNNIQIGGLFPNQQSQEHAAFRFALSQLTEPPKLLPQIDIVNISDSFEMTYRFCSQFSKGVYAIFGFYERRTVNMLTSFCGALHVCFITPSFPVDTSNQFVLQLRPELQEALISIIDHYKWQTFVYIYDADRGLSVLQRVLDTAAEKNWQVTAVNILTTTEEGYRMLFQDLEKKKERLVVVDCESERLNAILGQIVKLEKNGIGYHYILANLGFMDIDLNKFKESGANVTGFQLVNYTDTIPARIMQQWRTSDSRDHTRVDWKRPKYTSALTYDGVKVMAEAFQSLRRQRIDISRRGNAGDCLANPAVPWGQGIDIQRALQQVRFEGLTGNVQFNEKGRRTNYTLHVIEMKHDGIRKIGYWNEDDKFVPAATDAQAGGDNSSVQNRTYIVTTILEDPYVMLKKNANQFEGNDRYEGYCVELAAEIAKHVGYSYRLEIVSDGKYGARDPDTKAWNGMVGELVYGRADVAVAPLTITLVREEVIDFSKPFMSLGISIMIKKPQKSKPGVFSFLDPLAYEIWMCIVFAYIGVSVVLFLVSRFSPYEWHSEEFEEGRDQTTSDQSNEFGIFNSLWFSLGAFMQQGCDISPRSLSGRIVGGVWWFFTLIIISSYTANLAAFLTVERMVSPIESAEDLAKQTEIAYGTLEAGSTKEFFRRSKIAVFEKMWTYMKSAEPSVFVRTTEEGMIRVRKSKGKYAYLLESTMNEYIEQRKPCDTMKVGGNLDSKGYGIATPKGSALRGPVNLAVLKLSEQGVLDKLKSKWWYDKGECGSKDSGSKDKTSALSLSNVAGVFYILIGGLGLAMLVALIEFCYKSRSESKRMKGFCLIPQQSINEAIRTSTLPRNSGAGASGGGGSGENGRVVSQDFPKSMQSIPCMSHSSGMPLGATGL
T3 sequence (P22756 with tags, fused parts or gaps isoform P22756-2): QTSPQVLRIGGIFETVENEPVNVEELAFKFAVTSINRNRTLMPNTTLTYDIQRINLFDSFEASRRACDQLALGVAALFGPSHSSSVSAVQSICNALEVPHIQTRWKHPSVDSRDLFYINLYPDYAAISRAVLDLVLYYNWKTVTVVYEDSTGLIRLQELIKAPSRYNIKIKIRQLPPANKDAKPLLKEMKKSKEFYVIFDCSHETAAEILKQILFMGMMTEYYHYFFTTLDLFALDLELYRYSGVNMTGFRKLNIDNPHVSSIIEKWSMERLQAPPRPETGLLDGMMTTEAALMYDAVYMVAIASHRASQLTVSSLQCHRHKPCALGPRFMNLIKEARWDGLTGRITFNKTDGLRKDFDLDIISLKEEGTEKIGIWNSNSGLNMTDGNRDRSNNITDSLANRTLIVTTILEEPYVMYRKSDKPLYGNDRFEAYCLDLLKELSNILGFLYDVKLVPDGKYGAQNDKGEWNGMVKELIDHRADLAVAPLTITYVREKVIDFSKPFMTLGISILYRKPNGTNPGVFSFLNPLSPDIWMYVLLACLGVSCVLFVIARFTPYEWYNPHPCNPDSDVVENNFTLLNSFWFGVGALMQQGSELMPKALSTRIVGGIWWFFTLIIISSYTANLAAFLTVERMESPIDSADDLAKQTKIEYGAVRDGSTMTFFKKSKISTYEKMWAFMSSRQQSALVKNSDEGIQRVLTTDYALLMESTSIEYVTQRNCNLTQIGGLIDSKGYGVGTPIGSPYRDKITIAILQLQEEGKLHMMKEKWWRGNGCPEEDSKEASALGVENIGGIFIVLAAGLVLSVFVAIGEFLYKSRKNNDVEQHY
T7 sequence (P22756 with tags, fused parts or gaps isoform P22756-2 limits assumed, stated change not applied): as the sequence (P22756 with tags, fused parts or gaps isoform P22756-2) above

Row | SMILES | inhibition of currents from GluR4(i) receptors (GluR4(i) AMPA receptors) | recovery of glutamate-evoked currents after analog application, GluR6a (GluR6a; 30 μM analog) | reduction of glutamate-induced currents from GluR6a receptors (GluR6a; 30 μM analog) [%] | IC50 (GluR6a; 10 mM glutamate in continued presence of analog, read-out: IC50 inhibition of glutamate-evoked currents, GluR6a) [µM] | agonist activity: analog-evoked currents from GluR6a receptors (words) (GluR6a) | agonist activity: analog-evoked currents from GluR6a receptors (words) (GluR6a; listed as 2,4-epineoDH) | Ki (GluR5) [µM] | Ki (GluR1(i)) [µM] | KA2 binding affinity (displacement of [3H]kainate) (KA2) [µM] | Ki (GluR2) [µM] | IC50 (GluR5-2a) [µM] | Ki (GluR6) [µM]
1 | N[C@@H](C[C@@]1(C(=O)O)CC2OCC(O)C(O)C2O1)C(=O)O (single isomer, unassigned) [2,4-epi-neoDH, 2,4-epi-neodysiherbaine] | failed to inhibit | current amplitudes recovered more slowly | ~30 | 74 | failed to elicit detectable current; also recorded: antagonist (or possibly a very weak partial agonist); also recorded: fails to activate GluR5 or GluR6 receptors, even at 100 μM | fails to activate |  |  |  |  |  | 
2 | N[C@@H](C[C@@]1(C(=O)O)CC2OCC(O)C(O)C2O1)C(=O)O (single isomer, unassigned) [4-epi-neoDH, 4-epi-neodysiherbaine] |  | only exhibited a transient desensitization |  |  | evoked small but detectable currents; also recorded: elicits large currents; also recorded: activates |  |  |  |  |  |  | 
3 | N[C@@H](C[C@]1(C(=O)O)C[C@H]2OCCC[C@H]2O1)C(=O)O [MSVIII-19, 8,9-dideoxy-neoDH] |  |  |  |  |  |  | 0.128 | > 100 | >100 | > 100 | 0.023 | > 100
